In PubChem BioAssay AID1963839 (Molecular Pharmacology Branch, DTP, NCI, 2024):

Test system: 817829-284-R-J1-PDC complex spheroid viability
Test: Anticancer human tumor 817829-284-R-J1-PDC patient-derived colon adenocarcinoma cell line growth inhibition [POLQ]
Settings: for IC50: curve of first compound; for viability, T/C: stronger effect = lower value
Method: Multicellular complex tumor spheroid response to Polymerase (POL) inhibitors (novobiocin, ART-558, RP6685) in combination with a variety of drugs and investigational agents in selected tumor cell lines
The POL inhibitors (novobiocin, ART-558, and RP6685) were evaluated both individually and in combination with standard of care and investigational anticancer small molecules within a complex spheroid model of solid tumors. . Complex spheroids include a stromal component modeled by human endothelial cells (HUVEC) and fibroblasts modeled by human mesenchymal stem cells (MSCs). The concentration ranges selected for each drug and investigational agent were based upon clinically achievable concentrations if the clinical Cmax of the agent was known.
Compounds. The drugs and investigational agents: novobiocin (NSC847541), ART-558 (NSC835418), RP-6685 (NSC848927), peposertib (NSC802822), ceralasertib (NSC780249), elimusertib (NSC800525), camonsertib (NSC841442), AZD-1390 (NSC803789), olaparib (NSC753686), talazoparib (NSC767125), rucaparib (NSC756644), sotorasib (NSC818433), MRTX-1133 (NSC836407), SN-38 (NSC673596), topotecan (NSC609699), epotoside (NSC141540), doxorubicin (NSC123127), gemcitabine (NSC613327), 5-fluorouracil (NSC19893), paclitaxel (NSC125973), vemurafenib (NSC761431), MSA-2 (NSC828583), SN-011 (NSC837082), adavosertib (NSC754352), prexasertib (NSC758257), carboplatin (NSC241240) and oxaliplatin (NSC266046), were obtained from the National Cancer Institute (NCI) Developmental Therapeutics Program Chemical Repository (21). The FDA-approved anticancer drug set is available from the Developmental Therapeutics Program at https://dtp.cancer.gov/organization/dscb/obtaining/. […] The stock solutions were prepared in dimethyl sulfoxide (DMSO, Sigma-Aldrich, St. Louis, MO, cat. D2650), except for the platinum compounds which were prepared in saline (Quality Biological, Gaithersburg, MD, cat. 114-055-101), at 800-fold the tested concentration and stored at -70 degrees C prior to their use. All drugs and investigational agents were tested over a range starting from a high concentration at or near the clinical Cmax and decreasing in half-log increments. If the clinical Cmax for an agent had not been determined, the highest concentration tested was 10 microM, except for SN-38, which was tested at a high concentration of 1 microM.
Cell Culture. All cells were maintained in an incubator at 37 degrees C and 5% CO2 with 95% humidity. The PDC lines were cultured according to standard operating procedures established by the NCI PDMR (https://pdmr.cancer.gov). Table 3 of the manuscript, lists the cell lines along with the number of the three cell types plated to form the mct-spheroids and media for tumor cell growth. After thawing, all PDC lines, except 997537-175-T-J1-PDC and 415267-285-R-J2-PDC, were cultured in Matrigel-coated flasks prepared with a working solution of 1X Ham's F-12 nutrient mix, without supplementation (Thermo Fisher Scientific, cat. 11765054), 100 U/mL penicillin-streptomycin (Thermo Fisher Scientific, cat. 15140122), and 2.5% Matrigel (Corning Inc., Corning, NY, cat. 354248) for the first three passages. The two PDC lines 997537-175-T-J1-PDC and 415267-285-R-J2-PDC were cultured on uncoated flasks. The 857933-349-R-J2-PDC line was cultured in 6C/Colon 1B media containing advanced DMEM/F-12 (Thermo Fisher Scientific, cat. 12634028), 10 mM HEPES (Thermo Fisher Scientific, cat. 15630080), 1X GlutaMAX supplement (Thermo Fisher Scientific, cat. 35050061), 0.1 mg/mL primocin (InvivoGen, San Diego, CA, cat. ant-pm-2), 10% defined fetal bovine serum, heat inactivated (HyClone Laboratories Inc., Logan, UT, cat. SH30070.03HI), 50% L-WRN conditioned media (ATCC, cat. CRL-3276), 1.25 mM N-Acetyl-L-cysteine (Sigma-Aldrich, cat. A9165), 10 mM nicotinamide (Sigma-Aldrich, cat. N0636), 1X B-27 supplement (Thermo Fisher Scientific, cat. 17504044), 1X N-2 supplement (Thermo Fisher Scientific, cat. […]
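Also: spheroids exposed to compounds for 7 days.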
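For viability, T/C in this document: 100% = DMSO vehicle-treated spheroids.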

CC(=O)O[C@H]1C(=O)[C@@]2(C)[C@H]([C@H](OC(=O)c3ccccc3)[C@]3(O)C[C@H](OC(=O)[C@H](O)[C@@H](NC(=O)c4ccccc4)c4ccccc4)C(C)=C1C3(C)C)[C@]1(OC(C)=O)CO[C@@H]1C[C@@H]2O + COC1C(OC(N)=O)C(O)C(Oc2ccc3c(O)c(NC(=O)c4ccc(O)c(CC=C(C)C)c4)c(=O)oc3c2C)OC1(C)C
IC50 (second compound 0.0316 µM): < 9.49 nM
IC50 (second compound 0.1 µM): < 9.49 nM
IC50 (second compound 0.316 µM): < 9.49 nM
IC50 (second compound 1 µM): < 9.49 nM
IC50 (second compound 3.16 µM): < 9.49 nM
IC50 (second compound 10 µM): < 9.49 nM
viability, T/C (second compound 0.0316 µM, first compound 0.00949 µM): 6.3%
viability, T/C (second compound 0.0316 µM, first compound 0.03 µM): 5.64%
viability, T/C (second compound 0.0316 µM, first compound 0.0949 µM): 4.85%
viability, T/C (second compound 0.0316 µM, first compound 0.3 µM): 4.95%
viability, T/C (second compound 0.0316 µM, first compound 0.949 µM): 4.91%
viability, T/C (second compound 0.0316 µM, first compound 3 µM): 5.21%
viability, T/C (second compound 0.1 µM, first compound 0.00949 µM): 5.46%
viability, T/C (second compound 0.1 µM, first compound 0.03 µM): 4.45%
viability, T/C (second compound 0.1 µM, first compound 0.0949 µM): 4.97%
viability, T/C (second compound 0.1 µM, first compound 0.3 µM): 5.08%
viability, T/C (second compound 0.1 µM, first compound 0.949 µM): 4.85%
viability, T/C (second compound 0.1 µM, first compound 3 µM): 5.2%
viability, T/C (second compound 0.316 µM, first compound 0.00949 µM): 5.79%
viability, T/C (second compound 0.316 µM, first compound 0.03 µM): 5.7%
viability, T/C (second compound 0.316 µM, first compound 0.0949 µM): 5.32%
viability, T/C (second compound 0.316 µM, first compound 0.3 µM): 4.7%
viability, T/C (second compound 0.316 µM, first compound 0.949 µM): 4.56%
viability, T/C (second compound 0.316 µM, first compound 3 µM): 4.8%
viability, T/C (second compound 1 µM, first compound 0.00949 µM): 5.74%
viability, T/C (second compound 1 µM, first compound 0.03 µM): 5.47%
viability, T/C (second compound 1 µM, first compound 0.0949 µM): 5.82%
viability, T/C (second compound 1 µM, first compound 0.3 µM): 4.18%
viability, T/C (second compound 1 µM, first compound 0.949 µM): 4.64%
viability, T/C (second compound 1 µM, first compound 3 µM): 5.33%
viability, T/C (second compound 3.16 µM, first compound 0.00949 µM): 5.62%
viability, T/C (second compound 3.16 µM, first compound 0.03 µM): 5.09%
viability, T/C (second compound 3.16 µM, first compound 0.0949 µM): 4.79%
viability, T/C (second compound 3.16 µM, first compound 0.3 µM): 4.48%
viability, T/C (second compound 3.16 µM, first compound 0.949 µM): 4.83%
viability, T/C (second compound 3.16 µM, first compound 3 µM): 4.67%
viability, T/C (second compound 10 µM, first compound 0.00949 µM): 5.28%
viability, T/C (second compound 10 µM, first compound 0.03 µM): 5.23%
viability, T/C (second compound 10 µM, first compound 0.0949 µM): 5.99%
viability, T/C (second compound 10 µM, first compound 0.3 µM): 5.05%
viability, T/C (second compound 10 µM, first compound 0.949 µM): 4.95%
viability, T/C (second compound 10 µM, first compound 3 µM): 5.41%
